From patent US8765799B2, “Streptospirole derivatives” (Sanofi, priority 2008, dated 2014) come the findings set out here.

The test system of one assay is M. smegmatis (ATCC 607). The experiment in a line: Broth microdilution IC50 determination, M. smegmatis. It counts as cell-based, Mycobacterium smegmatis. To be noted: Mycolicibacterium smegmatis, ATCC607, assay mode Lum. (ATP level), 48 h incubation. The text has this: (§1) A test which is based on determining the intracellular concentration of ATP is employed for measuring the bacterial viability. It relies on the fact that intact living bacteria have higher intra-cellular ATP levels than bacterial cells which are damaged by the action of antimicrobials. The formulation of the reagent supports bacterial cell lysis and ATP is quantified luminometrically by a luciferin/luciferase reaction. The compounds of the formula (I) are used in a test as further outlined in Examples section in a single dose of 0.125-64μg/ml and a dose dependency is given as a IC50 value in Table 6. This Example describes the standard broth dilution method-microdilution used to determine the in vitro susceptibility of bacteria growing aerobically according to NCCLS M7-A7. The IC50 value of the compound to be tested is calculated as the inhibitory concentration of 50% at which 50% visible turbidity or the ATP level is inhibited. Compound stock solutions were prepared at concentrations of at least 1000μg/ml with methanol. After testing, the stock solution is aliquoted and stored at −80° C. Nystatin was dissolved in DMSO and then further dissolved in the respective culture medium. For every test strain following controls on each 384 well clear-transparent microtitration plate are needed: • drug-free growth control, • sterile control, and • Ciprofloxacin and Nystatin as reference compounds. For Mycobacterium smegmatis a special 384 well white microtitration plate was used. For an IC50 determination at least ten or twenty serial dilutions (geometrical dilution with factor 2) were prepared. [table] […] The exact colony number of each strain was determined by a surface culture method. […] Reading: The reading of the grown wells was done by means of a photometer for microtitration plates at 590 nm by absorbance mode. For Mycobacterium smegmatis the microtitration plates were measured by luminescence mode after incubation with 20μl BacTiter-Glo™/well for 5 minutes at room temperature protected from light. Evaluation: The IC50 values were determined in XLfit 4, model function 205.
Background: Dilution methods test growth across graded concentrations, often in twofold steps.

For the next assay, the system named is S. aureus (ATCC 29213). The experiment in a line: Broth microdilution IC50 determination, S. aureus ATCC 29213. Format: cell-based. The settings on record: Staphylococcus aureus, ATCC29213, assay mode Abs. (590 nm), 20 h incubation. As to the method:
as §1, with “The” for “A test which is based on determining the intracellular concentration of ATP is employed for measuring the bacterial viability. It relies on the fact that intact living bacteria have higher intra-cellular ATP levels than bacterial cells which are damaged by the action of antimicrobials. The formulation of the reagent supports bacterial cell lysis and ATP is quantified luminometrically by a luciferin/luciferase reaction. The”, “For” for “For Mycobacterium smegmatis a special 384 well white microtitration plate was used. For”, “[table] The usual test concentrations range from 64 to 0.125μg/ml or 64 to 0.0001μg/ml for strong inhibition. At the specification of the concentration the inoculation volume has to be considered. The whole test volume (compound solution and inoculum) was prepared with 40μl and accordingly for Mycobacterium smegmatis 20μl. The serial dilutions with Ciprofloxacin and Nystatin were prepared in special 384 well clear-transparent microtitration plate and were transferred in each 384 well microtitration plate before inoculation.” for “[table]”

Another assay relates to S. aureus (ATCC 33592). The assay can be described thus: Broth microdilution IC50 determination, S. aureus ATCC 33592. Format: cell-based. To be noted: Staphylococcus aureus, ATCC33592, assay mode Abs. (590 nm). As to the method:
as §1, with “The” for “A test which is based on determining the intracellular concentration of ATP is employed for measuring the bacterial viability. It relies on the fact that intact living bacteria have higher intra-cellular ATP levels than bacterial cells which are damaged by the action of antimicrobials. The formulation of the reagent supports bacterial cell lysis and ATP is quantified luminometrically by a luciferin/luciferase reaction. The”, “For” for “For Mycobacterium smegmatis a special 384 well white microtitration plate was used. For”, “The usual test concentrations range from 64 to 0.125μg/ml or 64 to 0.0001μg/ml for strong inhibition. At the specification of the concentration the inoculation volume has to be considered. The whole test volume (compound solution and inoculum) was prepared with 40μl and accordingly for Mycobacterium smegmatis 20μl. The serial dilutions with Ciprofloxacin and Nystatin were prepared in special 384 well clear-transparent microtitration plate and were transferred in each 384 well microtitration plate before inoculation.” for “[table]”

In another assay the test system is E. faecalis (ATCC 29212). The experiment in a line: Broth microdilution IC50 determination, E. faecalis. It counts as cell-based. To be noted: Enterococcus faecalis, ATCC29212, assay mode Abs. (590 nm), 20 h incubation. How it is done:
as §1, with “The” for “A test which is based on determining the intracellular concentration of ATP is employed for measuring the bacterial viability. It relies on the fact that intact living bacteria have higher intra-cellular ATP levels than bacterial cells which are damaged by the action of antimicrobials. The formulation of the reagent supports bacterial cell lysis and ATP is quantified luminometrically by a luciferin/luciferase reaction. The”, “For” for “For Mycobacterium smegmatis a special 384 well white microtitration plate was used. For”, “[table] The usual test concentrations range from 64 to 0.125μg/ml or 64 to 0.0001μg/ml for strong inhibition. At the specification of the concentration the inoculation volume has to be considered. The whole test volume (compound solution and inoculum) was prepared with 40μl and accordingly for Mycobacterium smegmatis 20μl. The serial dilutions with Ciprofloxacin and Nystatin were prepared in special 384 well clear-transparent microtitration plate and were transferred in each 384 well microtitration plate before inoculation.” for “[table]”

Assay [1] has as its system S. pneumoniae (DSMZ 11865). The experiment in a line: Broth microdilution IC50 determination, S. pneumoniae. Format: cell-based. The settings on record: Streptococcus pneumoniae, DSMZ11865, assay mode Lum.
Source text: as §1, with “For” for “For Mycobacterium smegmatis a special 384 well white microtitration plate was used. For”, “The usual test concentrations range from 64 to 0.125μg/ml or 64 to 0.0001μg/ml for strong inhibition.” for “[table]”

A further assay concerns S. pyogenes (ATCC 12344). The assay can be described thus: Broth microdilution IC50 determination, S. pyogenes. Format: cell-based. The settings on record: Streptococcus pyogenes, ATCC12344, assay mode Abs. (590 nm), 20 h incubation. As to the method: as §1, with “The” for “A test which is based on determining the intracellular concentration of ATP is employed for measuring the bacterial viability. It relies on the fact that intact living bacteria have higher intra-cellular ATP levels than bacterial cells which are damaged by the action of antimicrobials. The formulation of the reagent supports bacterial cell lysis and ATP is quantified luminometrically by a luciferin/luciferase reaction. The”, “For” for “For Mycobacterium smegmatis a special 384 well white microtitration plate was used. For”, “[table] The usual test concentrations range from 64 to 0.125μg/ml or 64 to 0.0001μg/ml for strong inhibition. At the specification of the concentration the inoculation volume has to be considered. The whole test volume (compound solution and inoculum) was prepared with 40μl and accordingly for Mycobacterium smegmatis 20μl. The serial dilutions with Ciprofloxacin and Nystatin were prepared in special 384 well clear-transparent microtitration plate and were transferred in each 384 well microtitration plate before inoculation.” for “[table]”

SMILES strings stand for the structures. Values after ≈ are worked out from the molar mass of the structure shown.

For orientation: IC50 means the point on the concentration scale where inhibition reaches its midpoint. As to `CCCCCCc1c(O)ccc2c1O[C@]1(C2=O)C(Cl)=C(Cl)C(=O)N1C` [(II), Streptospirole A], the IC50 is 0.4 µg/mL (≈ 1.04 µM) in the assay with M. smegmatis (ATCC 607); 0.08 µg/mL (≈ 0.208 µM) with S. aureus (ATCC 29213); 0.03 µg/mL (≈ 0.0781 µM) in the assay on S. aureus (ATCC 33592); 0.87 µg/mL (≈ 2.26 µM) in the assay on E. faecalis (ATCC 29212); 0.28 µg/mL (≈ 0.729 µM) in assay [1]; 0.28 µg/mL (≈ 0.729 µM) in the assay on S. pyogenes (ATCC 12344).
`CC(C)CCCc1c(O)ccc2c1O[C@]1(C2=O)C(Cl)=C(Cl)C(=O)N1C` [(III), Streptospirole B]: the IC50 with M. smegmatis (ATCC 607) was determined as 0.26 µg/mL (≈ 0.677 µM); with S. aureus (ATCC 29213), 0.05 µg/mL (≈ 0.13 µM); in the assay with S. aureus (ATCC 33592), 0.02 µg/mL (≈ 0.052 µM); with E. faecalis (ATCC 29212), 0.59 µg/mL (≈ 1.54 µM); in assay [1], 0.34 µg/mL (≈ 0.885 µM); in the assay with S. pyogenes (ATCC 12344), 0.12 µg/mL (≈ 0.312 µM).
Regarding `CC[C@H](C)CCCc1c(O)ccc2c1O[C@]1(C2=O)C(Cl)=C(Cl)C(=O)N1C` [(IV), Streptospirole C], the IC50 in the assay with M. smegmatis (ATCC 607) stood at 0.09 µg/mL (≈ 0.226 µM); with S. aureus (ATCC 29213) it was 0.005 µg/mL (≈ 0.0126 µM); with S. aureus (ATCC 33592) it was 0.003 µg/mL (≈ 0.00753 µM); with E. faecalis (ATCC 29212), 0.07 µg/mL (≈ 0.176 µM); in assay [1] it was 0.21 µg/mL (≈ 0.527 µM); in the assay with S. pyogenes (ATCC 12344), 0.04 µg/mL (≈ 0.1 µM).
